# Legend:
# Assay in all cases: Test B pre-/postemergence plant response
# Type in all cases: in vivo
# [1] = test system: wheat (Triticum aestivum); settings: for Wheat plant response rating (0 to 100 scale): 62 g ai/ha, postemergence, 0 is no effect, 100 is complete control, 13 to 15 days; for Plant response rating, Wheat: Postemergence, 125 g ai/ha, scale 0 to 100 (0 no effect, 100 complete control)
# Outline: (§1)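 Greenhouse herbicide screen. Pre- and postemergence (1- to 4-leaf) spray of compound in solvent/surfactant mixture; loam–sand soil for pre, peat/vermiculite medium for post. Visual control rating 0–100 at 13 to 15 days after treatment.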
# [2] = test system: kochia (Kochia scoparia); settings: for Kochia plant response rating (0 to 100 scale): 62 g ai/ha, 0 is no effect, 13 to 15 days
# Outline: as §1
# [3] = test system: woolly cupgrass (Eriochloa villosa); settings: for Cupgrass, Woolly plant response rating (0 to 100 scale): 62 g ai/ha, 0 is no effect, 13 to 15 days
# Outline: as §1
# [4] = test system: bermudagrass (Cynodon dactylon); settings: for Bermudagrass plant response rating (0 to 100 scale): 62 g ai/ha, 0 is no effect, 13 to 15 days
# Outline: as §1
# [5] = test system: soybean (Glycine max); settings: for Soybean plant response rating (0 to 100 scale): 62 g ai/ha, postemergence, 0 is no effect, 100 is complete control, 13 to 15 days; for Plant response rating, Soybean: Postemergence, scale 0 to 100 (0 no effect, 100 complete control)
# Outline: as §1
# [6] = test system: large crabgrass (Digitaria sanguinalis); settings: for Crabgrass, Large plant response rating (0 to 100 scale): 62 g ai/ha, 0 is no effect, 13 to 15 days
# Outline: as §1
# [7] = test system: yellow nutsedge (Cyperus esculentus); settings: for Nutsedge, Yellow plant response rating (0 to 100 scale): 62 g ai/ha, 0 is no effect, 13 to 15 days
# Outline: as §1
# [8] = test system: downy bromegrass (Bromus tectorum); settings: for Bromegrass, Downy plant response rating (0 to 100 scale): 62 g ai/ha, 0 is no effect, 13 to 15 days
# Outline: as §1
# [9] = test system: cocklebur (Xanthium strumarium); settings: for Cocklebur plant response rating (0 to 100 scale): 62 g ai/ha, 0 is no effect, 13 to 15 days
# Outline: as §1
# [10] = test system: morningglory (Ipomoea coccinea); settings: for Morningglory plant response rating (0 to 100 scale): 62 g ai/ha, 0 is no effect, 13 to 15 days
# Outline: as §1
# [11] = test system: Italian ryegrass (Lolium multiflorum); settings: for Ryegrass, Italian plant response rating (0 to 100 scale): 62 g ai/ha, postemergence, 0 is no effect, 100 is complete control, 13 to 15 days; for Plant response rating, Ryegrass, Italian: Postemergence, scale 0 to 100 (0 no effect, 100 complete control)
# Outline: as §1
# [12] = test system: velvetleaf (Abutilon theophrasti); settings: for Velvetleaf plant response rating (0 to 100 scale): 62 g ai/ha, postemergence, 0 is no effect, 100 is complete control, 13 to 15 days; for Plant response rating, Velvetleaf: Postemergence, scale 0 to 100 (0 no effect, 100 complete control)
# Outline: as §1
# [13] = 31 g ai/ha, postemergence, scale 0 to 100, 0 is no effect, 100 is complete control
# [14] = postemergence, 100 is complete control
# [15] = Postemergence, 250 g ai/ha, scale 0 to 100 (0 no effect, 100 complete control)
# [16] = Postemergence, 125 g ai/ha, scale 0 to 100 (0 no effect, 100 complete control)
smiles,measurement,setting,value
COCCn1c(-c2cccc(C)c2)ncc(C(=O)C2=C(O)CCCC2=O)c1=O [Compound 117],Wheat plant response rating (0 to 100 scale),[1],5
same,"Plant response rating, Wheat",[1],20
same,"Plant response rating, Kochia",[2]; [13],45
same,Kochia plant response rating (0 to 100 scale),[2]; [14],50
same,"Plant response rating, Kochia",[2]; [15],85
same,"Plant response rating, Cupgrass, Woolly",[3]; [13],65
same,"Cupgrass, Woolly plant response rating (0 to 100 scale)",[3]; [14],85
same,"Plant response rating, Cupgrass, Woolly",[3]; [16],95
same,"Plant response rating, Cupgrass, Woolly",[3]; [15],98
same,"Plant response rating, Bermudagrass",[4]; [13],75
same,Bermudagrass plant response rating (0 to 100 scale),[4]; [14],90
same,"Plant response rating, Bermudagrass",[4]; [16],95
same,"Plant response rating, Bermudagrass",[4]; [15],100
same,Soybean plant response rating (0 to 100 scale),[5],80
same,"Plant response rating, Soybean",[5]; 125 g ai/ha,95
same,"Plant response rating, Soybean",[5]; 250 g ai/ha,95
same,"Plant response rating, Crabgrass, Large",[6]; [13],75
same,"Crabgrass, Large plant response rating (0 to 100 scale)",[6]; [14],80
same,"Plant response rating, Crabgrass, Large",[6]; [16],95
same,"Plant response rating, Crabgrass, Large",[6]; [15],95
same,"Plant response rating, Nutsedge, Yellow",[7]; [13],0
same,"Nutsedge, Yellow plant response rating (0 to 100 scale)",[7]; [14],0
same,"Plant response rating, Nutsedge, Yellow",[7]; [16],25
same,"Plant response rating, Nutsedge, Yellow",[7]; [15],35
same,"Plant response rating, Bromegrass, Downy",[8]; [13],5
same,"Bromegrass, Downy plant response rating (0 to 100 scale)",[8]; [14],10
same,"Plant response rating, Bromegrass, Downy",[8]; [16],15
same,"Plant response rating, Bromegrass, Downy",[8]; [15],45
same,"Plant response rating, Cocklebur",[9]; [13],75
same,Cocklebur plant response rating (0 to 100 scale),[9]; [14],75
same,"Plant response rating, Cocklebur",[9]; [16],98
same,"Plant response rating, Cocklebur",[9]; [15],100
same,"Plant response rating, Morningglory",[10]; [13],10
same,Morningglory plant response rating (0 to 100 scale),[10]; [14],75
same,"Plant response rating, Morningglory",[10]; [16],80
same,"Plant response rating, Morningglory",[10]; [15],100
same,"Ryegrass, Italian plant response rating (0 to 100 scale)",[11],10
same,"Plant response rating, Ryegrass, Italian",[11]; 125 g ai/ha,15
same,"Plant response rating, Ryegrass, Italian",[11]; 250 g ai/ha,50
same,Velvetleaf plant response rating (0 to 100 scale),[12],85
same,"Plant response rating, Velvetleaf",[12]; 125 g ai/ha,95
same,"Plant response rating, Velvetleaf",[12]; 250 g ai/ha,100
"COCCCn1c(-c2cccc(C)c2)ncc(C(=O)C2=C(O)CCCC2=O)c1=O [Compound 118, 5-[(2-hydroxy-6-oxo-1-cyclohexane-1-yl)carbonyl]-3-(3-methoxypropyl)-2-(3-methylphenyl)-4(3H)-pyrimidinone]",Wheat plant response rating (0 to 100 scale),[1],5
same,"Plant response rating, Wheat",[1],5
same,"Plant response rating, Kochia",[2]; [13],45
same,Kochia plant response rating (0 to 100 scale),[2]; [14],65
same,"Plant response rating, Kochia",[2]; [16],70
same,"Plant response rating, Kochia",[2]; [15],98
same,"Plant response rating, Cupgrass, Woolly",[3]; [13],65
same,"Cupgrass, Woolly plant response rating (0 to 100 scale)",[3]; [14],70
same,"Plant response rating, Cupgrass, Woolly",[3]; [16],75
same,"Plant response rating, Cupgrass, Woolly",[3]; [15],95
same,"Plant response rating, Bermudagrass",[4]; [13],75
same,Bermudagrass plant response rating (0 to 100 scale),[4]; [14],95
same,"Plant response rating, Bermudagrass",[4]; [16],98
same,"Plant response rating, Bermudagrass",[4]; [15],98
same,Soybean plant response rating (0 to 100 scale),[5],90
same,"Plant response rating, Soybean",[5]; 125 g ai/ha,95
same,"Plant response rating, Soybean",[5]; 250 g ai/ha,100
same,"Plant response rating, Crabgrass, Large",[6]; [13],70
same,"Crabgrass, Large plant response rating (0 to 100 scale)",[6]; [14],75
same,"Plant response rating, Crabgrass, Large",[6]; [16],80
same,"Plant response rating, Crabgrass, Large",[6]; [15],95
same,"Plant response rating, Nutsedge, Yellow",[7]; [13],35
same,"Nutsedge, Yellow plant response rating (0 to 100 scale)",[7]; [14],45
same,"Plant response rating, Nutsedge, Yellow",[7]; [16],65
same,"Plant response rating, Nutsedge, Yellow",[7]; [15],65
same,"Plant response rating, Bromegrass, Downy",[8]; [13],0
same,"Bromegrass, Downy plant response rating (0 to 100 scale)",[8]; [14],5
same,"Plant response rating, Bromegrass, Downy",[8]; [16],30
same,"Plant response rating, Bromegrass, Downy",[8]; [15],35
same,"Plant response rating, Cocklebur",[9]; [13],40
same,Cocklebur plant response rating (0 to 100 scale),[9]; [14],40
same,"Plant response rating, Cocklebur",[9]; [16],85
same,"Plant response rating, Cocklebur",[9]; [15],98
same,"Plant response rating, Morningglory",[10]; [13],10
same,Morningglory plant response rating (0 to 100 scale),[10]; [14],60
same,"Plant response rating, Morningglory",[10]; [16],70
same,"Plant response rating, Morningglory",[10]; [15],80
same,"Ryegrass, Italian plant response rating (0 to 100 scale)",[11],5
same,"Plant response rating, Ryegrass, Italian",[11]; 125 g ai/ha,5
same,"Plant response rating, Ryegrass, Italian",[11]; 250 g ai/ha,60
same,Velvetleaf plant response rating (0 to 100 scale),[12],75
same,"Plant response rating, Velvetleaf",[12]; 125 g ai/ha,98
same,"Plant response rating, Velvetleaf",[12]; 250 g ai/ha,100
